Experimental data from patent publication US20110039921A1 (priority 2007, published 2011).
Like-named read-outs stand apart in the source and are kept apart here.

Tests used:
Lewis lung cancer = assay: Inhibitory activity on mice Lewis lung cancer
[1] = system: A549: the human lung adenocarcinoma cell strain; assay: cells; type: cell-based
Method: (§1) Experiment 1. Cytotoxicity Screening Assay at Cell Level of Compounds of this Invention
(§2) Tumor cells at log phase were incubated on 96-well plates at a density of 1˜1.2×10^4 cells/ml, 100 μl/well. 24 h later, treatment cells were exposed to the tested agents at different concentrations. Each tested agents had 4˜5 doses, and each dose had at least 3 parallel wells. Control cells were exposed to solvents in the same volume with treat agents. Cells were cultured at 37° C. in a cell incubator with 5% CO2 and 95% air atmosphere. After 4 days of culture, the incubation medium was removed, then 200 μl 0.2% MTT (prepared by RPMI 1640) was added to each well and the plates were incubated at 37° C. for 4 hours. The supernatant was discarded and dissolved the resulting formazen product with 200 μl DMSO in each well. The absorbance at a reference wavelength of 450 nm and a test wavelength of 570 nm was read on a microplate reader after tenderly shaking. Calculated drug inhibitory rate using the following equation and IC50, taking solvent exposure tumor cells as control cells.

[2] = system: KB: the human oral epithelium cancer cell strain; assay: cells; type: cell-based
Method: as §1, §2

[3] = system: human mammary adenocarcinoma cell strain MCF-7; assay: MTT cytotoxicity assay, MCF-7 cells; type: cell-based; conditions: Table 2, read-out: IC50 (mol/L) MCF-7
Method: as §1, §2

[4] = system: human ovarian cancer A2780-nude mice-xenograft tumor; assay: Growth inhibition on A2780-nude mice-xenograft tumor; conditions: for Tv x ± SD dn: dn: 30 days after the first administration
Text: (§3) Genera: BALB/c (nu-nu) nude mice
(§4) After one-week accommodation, animals were given subcutaneous implantation of the human lung adenocarcinoma A549 or the human ovarian cancer A2780 or the human gastric carcinoma BGC-823 cells. Animals were grouped randomly (d0) when the tumors reached 100-300 mm^3. […] Animal weights and tumor measurements were taken every […] and recorded. At the end of the study (d30 or d35), nude mice were euthanized and weighed. After the animals were sacrificed, tumor tissue was cut and weighed. Tumor volume was determined using the following equation: […]

[5] = system: human gastric carcinoma BGC-823 nude mice-xenograft tumor; assay: Growth inhibition on BGC-823-nude mice-xenograft tumor; conditions: for Tv x ± SD dn: dn 30 days after the first administration
Text: as §3, §4

HCT-8 = assay: MTT cytotoxicity assay, HCT-8 cells; type: cell-based; conditions: Table 2, read-out: IC50 (mol/L) HCT-8
Method: as §1, §2

[6] = system: A549/Taxol: the taxol-resistant substrain of A549; assay: cells; type: cell-based, human
Method: as §1, §2

[7] = system: KB/V: the vincristine-resistant substrain of KB; assay: cells; type: cell-based, human; conditions: Table 1; MTT, 4 days of culture; read-out: IC50(M) KB/V
Method: as §1, §2

[8] = system: human lung adenocarcinoma A549-nude mice-xenograft tumor; assay: Growth inhibition on A549-nude mice-xenograft tumor
Text: as §3, §4

A2780 = assay: MTT cytotoxicity assay, A2780 cells; type: cell-based, human; conditions: Table 2, read-out: IC50 (mol/L) A2780
Method: as §1, §2

BGC-823 = assay: MTT cytotoxicity assay, BGC-823 cells; type: cell-based, human; conditions: Table 2, read-out: IC50 (mol/L) BGC-823
Method: as §1, §2

BGC-803 = assay: MTT cytotoxicity assay, BGC-803 cells; type: cell-based; conditions: Table 2, read-out: IC50 (mol/L) BGC-803
Method: as §1, §2

Bel-7402 = assay: MTT cytotoxicity assay, Bel-7402 cells; type: cell-based; conditions: Table 2, read-out: IC50 (mol/L) Bel-7402
Method: as §1, §2

[9] = system: MCF-7/D: adriamycin-resistant subline of the human mammary adenocarcinoma cell strain MCF-7; assay: MTT cytotoxicity assay, MCF-7/D cells; type: cell-based; conditions: Table 2, read-out: IC50 (mol/L) MCF-7/D
Method: as §1, §2

CC=C(C)C(=O)NC(c1ccccc1)C(O)C(=O)OC1CC2(O)C(OC(=O)c3cccc(N=[N+]=[N-])c3)C3C4(OC(C)=O)COC4CC(OC(=O)CC)C3(C)C(=O)C(O)C(=C1C)C2(C)C (stereo not drawn) [Example 8, 2-(3-azidobenzoyl)-7-propionyl-10-deacetyl-cephalomannine]
Inhibition (%) (Lewis lung cancer; 2.5 × 8 mg/kg): 27.77%
Tumor weight (g) Average (Lewis lung cancer; 2.5 × 8 mg/kg): 2.07 g
Body weight (g) end (Lewis lung cancer; 2.5 × 8 mg/kg): 22.0 g
Body weight (g) initial (Lewis lung cancer; 2.5 × 8 mg/kg): 20.0 g
Inhibition (%) (Lewis lung cancer; 5 × 8 mg/kg): 32.46%
Tumor weight (g) Average (Lewis lung cancer; 5 × 8 mg/kg): 1.96 g
Body weight (g) end (Lewis lung cancer; 5 × 8 mg/kg): 20.4 g
Body weight (g) initial (Lewis lung cancer; 5 × 8 mg/kg): 20.0 g
Inhibition (%) (Lewis lung cancer; 10 × 8 mg/kg): 76.08%
Tumor weight (g) Average (Lewis lung cancer; 10 × 8 mg/kg): 0.69 g
Body weight (g) end (Lewis lung cancer; 10 × 8 mg/kg): 16.8 g
Body weight (g) initial (Lewis lung cancer; 10 × 8 mg/kg): 19.5 g
inhibition of tumor growth, conclusion in words (Lewis lung cancer; Lewis lung cancer, comparison with taxol): stronger effect
IC50 ([1]; Table 1, MTT, 4 days of culture, read-out: IC50(M) A549): 9.36e-09 M
IC50 ([1]; Table 2, MTT assay, read-out: IC50 (mol/L) A549): 9.4e-10 M
IC50 ([2]; Table 1, MTT, 4 days of culture, read-out: IC50(M) KB): 2.39e-09 M
IC50 ([2]; Table 2, MTT assay, read-out: IC50 (mol/L) KB): 4.9e-10 M
IC50 [3]: 0.68 nM
RTV ([4]; 7.5 × 4 mg/kg i.p.): 7.8
T/C (%) ([4]; 7.5 × 4 mg/kg i.p.): 80.3%
Tv x ± SD d0 ([4]; 7.5 × 4 mg/kg i.p., d0): 127.6 ± 65.9
Tv x ± SD dn ([4]; 7.5 × 4 mg/kg i.p.): 989.3 ± 658.9
Body weight (g) end ([4]; 7.5 × 4 mg/kg i.p.): 25.5 g
Body weight (g) initial ([4]; 7.5 × 4 mg/kg i.p.): 22.4 g
RTV ([4]; 15 × 4 mg/kg i.p.): 6.6
T/C (%) ([4]; 15 × 4 mg/kg i.p.): 68.1%
Tv x ± SD d0 ([4]; 15 × 4 mg/kg i.p., d0): 130.2 ± 36.0
Tv x ± SD dn ([4]; 15 × 4 mg/kg i.p.): 855.6 ± 500.3
Body weight (g) end ([4]; 15 × 4 mg/kg i.p.): 25.2 g
Body weight (g) initial ([4]; 15 × 4 mg/kg i.p.): 22.0 g
RTV ([4]; 30 × 4 mg/kg i.p.): 3.4
T/C (%) ([4]; 30 × 4 mg/kg i.p.): 34.9%
Tv x ± SD d0 ([4]; 30 × 4 mg/kg i.p., d0 (first administration)): 157.1 ± 56.2
Tv x ± SD dn ([4]; 30 × 4 mg/kg i.p.): 529.6 ± 454.8
Body weight (g) end ([4]; 30 × 4 mg/kg i.p.): 22.3 g
Body weight (g) initial ([4]; 30 × 4 mg/kg i.p.): 22.0 g
inhibition of tumor growth, conclusion in words ([4]; A2780 nude mice-xenograft tumor, comparison with taxol): stronger effect
RTV ([5]; 7.5 × 4 mg/kg i.p.): 17.45
T/C (%) ([5]; 7.5 × 4 mg/kg i.p.): 63.84%
Tv x ± SD d0 ([5]; 7.5 × 4 mg/kg i.p.): 101.1 ± 17.4
Tv x ± SD dn ([5]; 7.5 × 4 mg/kg i.p.): 2057.5 ± 1756.4
Body weight (g) end ([5]; 7.5 × 4 mg/kg i.p.): 26.1 g
Body weight (g) initial ([5]; 7.5 × 4 mg/kg i.p.): 24.7 g
RTV ([5]; 15 × 4 mg/kg i.p.): 9.27
T/C (%) ([5]; 15 × 4 mg/kg i.p.): 33.90%
Tv x ± SD d0 ([5]; 15 × 4 mg/kg i.p.): 104.4 ± 16
Tv x ± SD dn ([5]; 15 × 4 mg/kg i.p.): 1156.6 ± 403.9
Body weight (g) end ([5]; 15 × 4 mg/kg i.p.): 23.8 g
Body weight (g) initial ([5]; 15 × 4 mg/kg i.p.): 25.2 g
RTV ([5]; 30 × 4 mg/kg i.p.): 0.47
T/C (%) ([5]; 30 × 4 mg/kg i.p.): 4.57%
Tv x ± SD d0 ([5]; 30 × 4 mg/kg i.p.): 99.7 ± 34.3
Tv x ± SD dn ([5]; 30 × 4 mg/kg i.p.): 177.1 ± 199.0
Body weight (g) end ([5]; 30 × 4 mg/kg i.p.): 23.9 g
Body weight (g) initial ([5]; 30 × 4 mg/kg i.p.): 25.0 g
inhibition of tumor growth, conclusion in words ([5]; BGC-823 nude mice-xenograft tumor, comparison with taxol): equal to taxol
IC50 (HCT-8): 0.32 nM
IC50 ([6]; Table 2, MTT assay, read-out: IC50 (mol/L) A549/T): 1.4 nM
IC50 ([6]; read-out: IC50(M) A549/Taxol, Table 1, MTT, 4 days of culture): > 1000 nM
IC50 [7]: 2.73e-07 M
RTV ([8]; 7.5 × 3 mg/kg): 7.2
T/C (%) ([8]; 7.5 × 3 mg/kg): 60.7%
Body weight (g) end ([8]; 7.5 × 3 mg/kg): 21.8 g
Tv x ± SD end ([8]; 7.5 × 3 mg/kg): 3090 ± 900
Body weight (g) initial ([8]; 7.5 × 3 mg/kg): 21.6 g
Tv x ± SD initial ([8]; 7.5 × 3 mg/kg): 431 ± 94
RTV ([8]; 15 × 3 mg/kg): 6.7
T/C (%) ([8]; 15 × 3 mg/kg): 56.7%
Body weight (g) end ([8]; 15 × 3 mg/kg): 25.1 g
Tv x ± SD end ([8]; 15 × 3 mg/kg): 2897 ± 950
Body weight (g) initial ([8]; 15 × 3 mg/kg): 22.4 g
Tv x ± SD initial ([8]; 15 × 3 mg/kg): 432 ± 115
RTV ([8]; 30 × 3 mg/kg): 4.0
T/C (%) ([8]; 30 × 3 mg/kg): 33.56%
Body weight (g) end ([8]; 30 × 3 mg/kg): 23.2 g
Tv x ± SD end ([8]; 30 × 3 mg/kg): 1646 ± 450
Body weight (g) initial ([8]; 30 × 3 mg/kg): 21.8 g
Tv x ± SD initial ([8]; 30 × 3 mg/kg): 415 ± 85
inhibition of tumor growth, conclusion in words ([8]; A549 nude mice-xenograft tumor, comparison with taxol): stronger effect
IC50 (A2780): 3.6 nM
IC50 (BGC-823): 1.3 nM
IC50 (BGC-803): 2.4 nM
IC50 (Bel-7402): 8.7 nM
IC50 [9]: 270 nM
